The nature of data set [1]: Solubility in PH 7.4 buffer by 1D 1H qNMR analysis. It counts as physicochemical.
The target of data set [2] is T1, Thiol:disulfide interchange protein DsbA (Escherichia coli (strain K12), UniProt P0AEG4).
T1 sequence (P0AEG4 whole entry): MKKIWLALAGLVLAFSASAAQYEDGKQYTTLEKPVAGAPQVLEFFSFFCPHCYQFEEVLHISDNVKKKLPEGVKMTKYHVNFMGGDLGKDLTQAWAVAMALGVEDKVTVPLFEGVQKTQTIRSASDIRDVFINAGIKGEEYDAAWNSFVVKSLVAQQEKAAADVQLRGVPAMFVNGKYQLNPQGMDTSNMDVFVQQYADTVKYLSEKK
Kind of data set: Binding affinity to uniformly labeled 15N oxidized Escherichia coli DsbA by 1H-15N HSQC NMR spectroscopy.

Converted amounts (≈) assume the structure as drawn.

As for `Cc1cc(Oc2ccc(CC(=O)N3CCN(C)C(=O)C3)cc2)ccc1C#N`, the concentration in solution in data set [1] (solubility) was 1000 µM (≈ 363 µg/mL). In data set [2], binding was put at a Kd of 480 µM. In data set [1], `Cc1cc(Oc2ccc(CC(=O)O)cc2)ccc1C#N` had a solubility of 1000 µM (≈ 267 µg/mL). For the molecule `CCN(CCn1cccn1)C(=O)Cc1ccc(Oc2ccc(C#N)c(C)c2)cc1`, the concentration in solution in data set [1] (solubility) came to 250 µM (≈ 97.1 µg/mL). The Kd in data set [2] came out at 62 µM. For `CC(=O)N1CCN(C(=O)Cc2ccc(Oc3ccc(C#N)c(C)c3)cc2)CC1` the same measures were 1000 µM (≈ 377 µg/mL) and 430 µM. For the molecule `Cc1nc(CCN(C)C(=O)Cc2ccc(Oc3ccc(C#N)c(C)c3)cc2)no1`, the solubility in data set [1] stood at 500 µM (≈ 195 µg/mL). The Kd in data set [2] is 230 µM. The molecule `N#Cc1ccc(Oc2ccc(O)cc2)cc1` gave a Kd in data set [2] of over 1000 µM. `Cc1cc(Oc2ccc(CC(=O)N3CCOCC3)cc2)ccc1C#N` returned a solubility in data set [1] of 500 µM (≈ 168 µg/mL). Moreover, in data set [2], the Kd was determined as 365 µM. In data set [1], `Cc1cc(Oc2ccc(CC(=O)NCCN3CCCN(C)CC3)cc2)ccc1C#N` registered a solubility of 1000 µM (≈ 407 µg/mL). In data set [2], this molecule had a Kd of 1100 µM. Regarding `Cc1cc(Oc2ccc(CC(=O)N3CCOCC3C(=O)O)cc2)ccc1C#N` (racemic), in data set [1], the solubility is 1000 µM (≈ 380 µg/mL). Also, the Kd in data set [2] is 290 µM.

For orientation: solubility means the concentration that dissolves in the medium under given conditions. Read a low solubility as a poorly soluble substance. Usually Kd stands for the free concentration of one partner at which half of the binding sites on the other are occupied at equilibrium, for simple one-to-one binding. A high value points to weaker binding.

Source of the values: ChEMBL document CHEMBL4610121, “Rapid Elaboration of Fragments into Leads by X-ray Crystallographic Screening of Parallel Chemical Libraries (REFiLX)” (J Med Chem, 2020).
